Assays:
[1] = tended to increase on day 1 after administration; cited from earlier work
[2] = test system: Wistar rats with activated renin-angiotensin-aldosterone system; test: In vivo assay for detecting natriuretic activity in conscious rats with activated RAAS; parameters: species or system rat; conditions: for Urinary Glucose concentration / Urinary K+ concentration / Urinary Na+ concentration / Urinary Volume/ body weight: Table 4, 24 h urine, mean ± SEM
Experimental: Wistar rats (ca. 250-500 g body weight) were kept with free access to feed (Altromin) and drinking water. […] This sodium-reduced feed causes an activation of the RAAS in the animals during the 3 days run-in phase and therefore mimics a neuroendocrine activation which is characteristic for cardiorenal diseases. […] At the start of the test, the substance to be tested was administered by means of gavage in a volume of 2-3 ml/kg of body weight of a suitable solvent PEG400). Control animals received only solvent (‘S’ or solvent in table 2 below). Controls and substance tests were carried out in parallel on the same day. Control groups and substance-dose groups each consisted of 6 to 10 animals. During the test, the urine excreted by the animals was continuously collected in a receiver on the base of the cage.
In this comparison, eight different administrations were performed (cf. groups A to H):
Group A received the solvent (PEG400) only. This group serves as control group.
Groups B, C and D received three increasing dosages of empagliflozin (SGLT2 inhibitor) only. It serves to detect the effects of the monotherapy with SGLT2 inhibitor.
Group E received a finerenone only. It serves to detect the effect of the monotherapy with finerenone.
Groups F, G and H received finerenone and the three doses of SGLT2 inhibitor in combination, respectively. It serves to detect the effect of the combined therapy with finerenone and empagliflozin (SGLT2 inhibitor) (combination according to the invention).
After the treatment, the urinary volume, urinary glucose, urinary sodium and potassium concentrations were measured.

[3] = Table 4 study, monotherapy 10 mg/kg
[4] = Table 4 study, monotherapy: canagliflozin 1 and 3 mg/kg, finerenone 1 mg/kg

Cc1ccc([C@@H]2O[C@H](CO)[C@@H](O)[C@H](O)[C@H]2O)cc1Cc1ccc(-c2ccc(F)cc2)s1 [canagliflozin, (2S,3R,4R,5S,6R)-2-(3-{[5-(4-fluorophenyl)thiophen-2-yl]methyl}-4-methylphenyl)-6-(hydroxymethyl)oxane-3,4,5-triol]
urinary Na+ excretion, in words [1]: returned to baseline from day 2 to 5 | Urinary Glucose concentration ([2]; monotherapy 1 mg/kg oral): 2.76 ± 0.36 mmol | Urinary K+ concentration ([2]; monotherapy 1 mg/kg oral): 1.86 ± 0.11 mmol | Urinary Na+ concentration ([2]; monotherapy 1 mg/kg oral): 0.15 ± 0.03 mmol | Urinary Volume/ body weight ([2]; monotherapy 1 mg/kg oral): 0.03108 ± 0.00317 L/kg | Urinary Glucose concentration ([2]; monotherapy 3 mg/kg oral): 6.94 ± 0.44 mmol | Urinary K+ concentration ([2]; monotherapy 3 mg/kg oral): 2.40 ± 0.17 mmol | Urinary Na+ concentration ([2]; monotherapy 3 mg/kg oral): 0.21 ± 0.05 mmol | Urinary Volume/ body weight ([2]; monotherapy 3 mg/kg oral): 0.04049 ± 0.00243 L/kg | Urinary Glucose concentration ([2]; monotherapy 10 mg/kg oral): 9.99 ± 0.46 mmol | Urinary K+ concentration ([2]; monotherapy 10 mg/kg oral): 2.36 ± 0.15 mmol | Urinary Na+ concentration ([2]; monotherapy 10 mg/kg oral): 0.41 ± 0.08 mmol | Urinary Volume/ body weight ([2]; monotherapy 10 mg/kg oral): 0.05583 ± 0.00352 L/kg | influence on urinary sodium, in words [2, 3]: increase | influence on urinary volume, in words [2, 3]: increase | influence on urinary potassium, in words [2, 4]: no influence | influence on urinary sodium, in words [2, 4]: no influence | influence on urinary volume, in words [2, 4]: no influence | influence on urinary glucose, in words ([2]; Table 4 study, monotherapy: canagliflozin all doses (1, 3, 10 mg/kg), finerenone 1 mg/kg): strong increase

Source: patent publication US20230201174A1, “COMBINATION OF FINERENONE AND A SGLT2 INHIBITOR FOR THE TREATMENT AND/OR PREVENTION OF CARDIOVASCULAR AND/OR RENAL DISEASES” (BAYER AKTIENGESELLSCHAFT, priority 2020, published 2023)
